In US12629374B2, “Antimalarial agents” (Merck Sharp & Dohme LLC, priority 2020, dated 2026):
pEC50: −log10 of the molar value.

Test system: ring stage parasites
Experiment: Parasite growth potency assay, 72 hours, LDH readout
Assay type: cell-based
Conditions: 72 h, parasite growth measured by LDH assay after 72 hours at 37° C.; 0.7% rings, 2% haematocrit; read-out: EC50
Outline: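 Parasite growth was quantified by LDH assay after a −80 °C freeze-thaw. Before that, compound was incubated for 72 h at 37 °C under humidified gas with ring-stage cultures adjusted to 0.7% parasitemia and 2% haematocrit in serum- and albumax-supplemented RPMI-Hepes.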

Point of comparison: `CCC1(CC)CC(=O)N([C@H](CCOC)c2cccc(C(=O)N[C@@H]3c4ccccc4OC(C)(C)C3(C)O)c2)C(=N)N1` (stereo partly drawn) [Example 203, 3-[(1R)-1-(4,4-diethyl-2-imino-6-oxo-hexahydropyrimidin-1-yl)-3-methoxy-propyl]-N-(3-hydroxy-2,2,3-trimethyl-chroman-4-yl)benzamide], pEC50 9.52. Against it:
- COCC[C@H](c1cccc(C(=O)N[C@@H]2c3ccccc3C[C@H]2O)c1)N1C(=N)NC(C)(C)CC1=O [Example 179, [1-[(1R)-1-[3-[[(1R,2R)-2-hydroxyindan-1-yl]carbamoyl]phenyl]-3-methoxy-propyl]-4,4-dimethyl-6-oxo-hexahydropyrimidin-2-ylidene]ammonium; 2,2,2-trifluoroacetate] — 1.44 log units lower, 8.08
- CCC1(CC)CC(=O)N([C@H](CCOC)c2cccc(C(=O)N[C@@H]3c4ccccc4OC3(C)C)c2)C(=N)N1 [Example 181A, [1-[(1R)-1-[3-[(2,2-dimethyl-3H-benzofuran-3-yl)carbamoyl]phenyl]-3-methoxy-propyl]-4,4-diethyl-6-oxo-hexahydropyrimidin-2-ylidene]ammonium; 2,2,2-trifluoroacetate] — 1.00 log units lower, 8.52
- CCC1(CC)CC(=O)N([C@H](CCOC)c2cccc(C(=O)N[C@H]3c4ccccc4OC3(C)C)c2)C(=N)N1 [Example 181B, [1-[(1R)-1-[3-[(2,2-dimethyl-3H-benzofuran-3-yl)carbamoyl]phenyl]-3-methoxy-propyl]-4,4-diethyl-6-oxo-hexahydropyrimidin-2-ylidene]ammonium; 2,2,2-trifluoroacetate] — 2.37 log units lower, 7.15
- CC1(C)CC(=O)N(Cc2cccc(C(=O)N[C@@H]3c4cc(F)ccc4OC(C)(C)[C@H]3O)c2)C(=N)N1 [Example 182, [1-[[3-[[(3S,4R)-6-fluoro-3-hydroxy-2,2-dimethyl-chroman-4-yl]carbamoyl]phenyl]methyl]-4,4-dimethyl-6-oxo-hexahydropyrimidin-2-ylidene]ammonium; 2,2,2-trifluoroacetate] — 1.25 log units lower, 8.27
- CC1(C)CC(=O)N(Cc2cc(F)cc(C(=O)N[C@@H]3c4ccccc4OC(C)(C)[C@H]3O)c2)C(=N)N1 [Example 183, [1-[[3-fluoro-5-[[(3S,4R)-3-hydroxy-2,2-dimethyl-chroman-4-yl]carbamoyl]phenyl]methyl]-4,4-dimethyl-6-oxo-hexahydropyrimidin-2-ylidene]ammonium; 2,2,2-trifluoroacetate] — 1.48 log units lower, 8.04
- COCC[C@H](c1cccc(C(=O)N[C@@H]2c3ccccc3CC2(O)C(F)(F)F)c1)N1C(=N)NC(C)(C)CC1=O (stereo partly drawn) [Example 188, [1-[(1R)-1-[3-[[2-hydroxy-2-(trifluoromethyl)indan-1-yl]carbamoyl]phenyl]-3-methoxy-propyl]-4,4-dimethyl-6-oxo-hexahydropyrimidin-2-ylidene]ammonium; 2,2,2-trifluoroacetate] — 1.38 log units lower, 8.14
- CCC1(CC)CC(=O)N([C@H](CCOC)c2cccc(C(=O)N[C@@H]3c4ccccc4C4(CC4)[C@H]3O)c2)C(=N)N1 [Example 191A, [4,4-diethyl-1-[(1R)-1-[3-[(2′-hydroxyspiro[cyclopropane-1,3′-indane]-1′-yl)carbamoyl]phenyl]-3-methoxy-propyl]-6-oxo-hexahydropyrimidin-2-ylidene]ammonium; 2,2,2-trifluoroacetate] — 0.37 log units lower, 9.15
- CCC1(CC)CC(=O)N([C@H](CCOC)c2cccc(C(=O)N[C@H]3c4ccccc4C4(CC4)[C@@H]3O)c2)C(=N)N1 [Example 191B, [4,4-diethyl-1-[(1R)-1-[3-[(2′-hydroxyspiro[cyclopropane-1,3′-indane]-1′-yl)carbamoyl]phenyl]-3-methoxy-propyl]-6-oxo-hexahydropyrimidin-2-ylidene]ammonium; 2,2,2-trifluoroacetate] — 2.48 log units lower, 7.04
- CCC1(CC)CC(=O)N([C@H](C)c2cccc(C(=O)N[C@@H]3c4ccccc4C[C@@]3(C)O)c2)C(=N)N1 [Example 192A, 3-[(1R)-1-(4,4-diethyl-2-imino-6-oxo-hexahydropyrimidin-1-yl)ethyl]-N-[(1R,2R)-2-hydroxy-2-methyl-indan-1-yl]benzamide] — 0.84 log units lower, 8.68
- CCC1(CC)CC(=O)N([C@H](C)c2cccc(C(=O)N[C@@H]3c4ccccc4OC(C)(C)[C@H]3O)c2)C(=N)N1 [Example 193, [4,4-diethyl-1-[(1R)-1-[3-[[(3S,4R)-3-hydroxy-2,2-dimethyl-chroman-4-yl]carbamoyl]phenyl]ethyl]-6-oxo-hexahydropyrimidin-2-ylidene]ammonium; 2,2,2-trifluoroacetate] — 0.30 log units lower, 9.22
- CC1(C)CC(=O)N(Cc2cccc(C(=O)N[C@@H]3c4ccccc4OC(C)(C)[C@H]3O)c2)C(=N)N1 [Example 194, [1-[[3-[[(3S,4R)-3-hydroxy-2,2-dimethyl-chroman-4-yl]carbamoyl]phenyl]methyl]-4,4-dimethyl-6-oxo-hexahydropyrimidin-2-ylidene]ammonium; 2,2,2-trifluoroacetate] — 1.58 log units lower, 7.94
- CCC1(C)CC(=O)N([C@H](CCOC)c2cccc(C(=O)N[C@@H]3c4ccccc4C[C@H]3O)c2)C(=N)N1 (stereo partly drawn) [Example 195A, [4-ethyl-1-[(1R)-1-[3-[[(1R,2R)-2-hydroxyindan-1-yl]carbamoyl]phenyl]-3-methoxy-propyl]-4-methyl-6-oxo-hexahydropyrimidin-2-ylidene]ammonium; 2,2,2-trifluoroacetate] — 1.04 log units lower, 8.48
- CC1(C)CC(=O)N(Cc2cccc(C(=O)N[C@H]3CC(C)(C)Oc4ccccc43)c2)C(=N)N1 [Example 198, [1-[[3-[[(4S)-2,2-dimethylchroman-4-yl]carbamoyl]phenyl]methyl]-4,4-dimethyl-6-oxo-hexahydropyrimidin-2-ylidene]ammonium; 2,2,2-trifluoroacetate] — 1.75 log units lower, 7.77
- COCC[C@H](c1cccc(C(=O)N[C@@H]2c3cc(F)ccc3C[C@H]2O)c1)N1C(=N)NC(C)(C)CC1=O [Example 200, [1-[(1R)-1-[3-[(6-fluoro-2-hydroxy-indan-1-yl)carbamoyl]phenyl]-3-methoxy-propyl]-4,4-dimethyl-6-oxo-hexahydropyrimidin-2-ylidene]ammonium; 2,2,2-trifluoroacetate] — 1.37 log units lower, 8.15
- CCC1(CC)CC(=O)N([C@H](CCOCCOCCOCCN=[N+]=[N-])c2cccc(C(=O)N[C@H]3CC(C)(C)Oc4ccccc43)c2)C(=N)N1 [Example 201, [1-[(1R)-3-[2-[2-(2-azidoethoxy)ethoxy]ethoxy]-1-[3-[[(4S)-2,2-dimethylchroman-4-yl]carbamoyl]phenyl]propyl]-4,4-diethyl-6-oxo-hexahydropyrimidin-2-ylidene]ammonium; 2,2,2-trifluoroacetate] — 0.60 log units lower, 8.92
- CCC1(CC)CC(=O)N([C@H](CCOC)c2cccc(C(=O)N[C@@H]3c4ccccc4C[C@@H]3O)c2)C(=N)N1 [Example 202, [4,4-diethyl-1-[(1R)-1-[3-[[(1R,2S)-2-hydroxyindan-1-yl]carbamoyl]phenyl]-3-methoxy-propyl]-6-oxo-hexahydropyrimidin-2-ylidene]ammonium; 2,2,2-trifluoroacetate] — 1.24 log units lower, 8.28

Same assay, conditions: parasite growth measured by LDH assay after 72 hours at 37° C.; 0.7% rings, 2% haematocrit; read-out: EC50

Point of comparison: `CCC1(C)CC(=O)N([C@H](CCOC)c2cccc(C(=O)N[C@@H]3c4ccccc4CC3(C)O)c2)C(=N)N1` (stereo partly drawn) [Example 196D, 3-[(1R)-1-(4-ethyl-2-imino-4-methyl-6-oxo-hexahydropyrimidin-l-yl)-3-methoxy-propyl]-N-[(1R,2R)-2-hydroxy-2-methyl-indan-1-yl]benzamide], pEC50 8.17. Against it:
- CCC1(CC)CC(=O)N([C@H](CCOC)c2cccc(C(=O)NC3c4ccccc4C(F)(F)C3O)c2)C(=N)N1 (stereo partly drawn) [Example 189B, [1-[(1R)-1-[3-[(3,3-difluoro-2-hydroxy-indan-1-yl)carbamoyl]phenyl]-3-methoxy-propyl]-4,4-diethyl-6-oxo-hexahydropyrimidin-2-ylidene]ammonium; chloride] — 1.64 log units lower, 6.53
- CCC1(CC)CC(=O)N([C@H](C)c2cccc(C(=O)N[C@@H]3c4ccccc4C[C@]3(C)O)c2)C(=N)N1 [Example 192B, 3-[(1R)-1-(4,4-diethyl-2-imino-6-oxo-hexahydropyrimidin-1-yl)ethyl]-N-[(1R,2S)-2-hydroxy-2-methyl-indan-1-yl]benzamide] — 0.40 log units higher, 8.57
- CCC1(C)CC(=O)N([C@H](CCOC)c2cccc(C(=O)N[C@@H]3c4ccccc4CC3(C)O)c2)C(=N)N1 (stereo partly drawn) [Example 196A, 3-[(1R)-1-(4-ethyl-2-imino-4-methyl-6-oxo-hexahydropyrimidin-1-yl)-3-methoxy-propyl]-N-[(1R,2S)-2-hydroxy-2-methyl-indan-1-yl]benzamide] — within 0.2 log units, 8.19
- CCC1(C)CC(=O)N([C@H](CCOC)c2cccc(C(=O)N[C@@H]3c4ccccc4CC3(C)O)c2)C(=N)N1 (stereo partly drawn) [Example 196B, 3-[(1R)-1-(4-ethyl-2-imino-4-methyl-6-oxo-hexahydropyrimidin-1-yl)-3-methoxy-propyl]-N-[(1R,2S)-2-hydroxy-2-methyl-indan-1-yl]benzamide] — 0.34 log units higher, 8.51
- CCC1(C)CC(=O)N([C@H](CCOC)c2cccc(C(=O)N[C@@H]3c4ccccc4C[C@@]3(C)O)c2)C(=N)N1 (stereo partly drawn) [Example 196C, 3-[(1R)-1-(4-ethyl-2-imino-4-methyl-6-oxo-hexahydropyrimidin-1-yl)-3-methoxy-propyl]-N-[(1R,2R)-2-hydroxy-2-methyl-indan-1-yl]benzamide] — within 0.2 log units, 8.13

Same assay, conditions: parasite growth measured by LDH assay after 72 hours at 37° C.; 0.7% rings, 2% haematocrit; trifluoroacetate; read-out: EC50

Point of comparison: `CCC1(C)CC(=O)N([C@H](CCOC)c2cccc(C(=O)N[C@@H]3c4ccccc4C[C@H]3O)c2)C(=N)N1` (stereo partly drawn) [Example 195B, [4-ethyl-1-[(1R)-1-[3-[[(1R,2R)-2-hydroxyindan-1-yl]carbamoyl]phenyl]-3-methoxy-propyl]-4-methyl-6-oxo-hexahydropyrimidin-2-ylidene]ammonium; 2,2,2-trifluoroacetate], pEC50 8.57. Against it:
- CCC1(CC)CC(=O)N([C@H](CCOC)c2cccc(C(=O)NC3c4ccccc4C(F)(F)C3O)c2)C(=N)N1 (stereo partly drawn) [Example 189A, [1-[(1R)-1-[3-[(3,3-difluoro-2-hydroxy-indan-1-yl)carbamoyl]phenyl]-3-methoxy-propyl]-4,4-diethyl-6-oxo-hexahydropyrimidin-2-ylidene]ammonium; 2,2,2-trifluoroacetate] — 0.53 log units higher, 9.10
